In US20040092498A1, “Substituted glycine derivatives for use as medicaments” (priority 2002, published 2004):

Test system: α2δ subunit
Assay: radioligand binding assay using [3H]gabapentin and the α2δ subunit
Conditions: [3H]gabapentin radioligand; α2δ subunit derived from porcine brain tissue
Description: The biological activity of the compounds of the invention may be measured in a radioligand binding assay using [^3H]gabapentin and the α2δ subunit derived from porcine brain tissue (Gee N. S., Brown J. P., Dissanayake V. U. K., Offord J., Thurlow R., Woodruff G. N., J. Biol. Chem., 1996;271:[…]). Results may be expressed in terms of μM or nM α2δ binding affinity.

| Compound | Activity (binding affinity) |
| --- | --- |
| O=C(O)CNCCSc1ccc(Cl)cc1 [Example 6, ({2-[(4-Chlorophenyl)sulfanyl]ethyl}amino)acetic acid] | 198 nM |
| NCc1ccc(SCCNCC(=O)O)cc1 [Example 8, [(2-{[4-(Aminomethyl)phenyl]sulfanyl}ethyl)amino]acetic acid] | 987 nM |
| O=C(O)CNCCOc1ccc(Cl)cc1Cl [Example 9, {[2-(2,4-Dichlorophenoxy)ethyl]amino}acetic acid] | 1665 nM |
| O=C(O)CNCCSCc1ccc(Cl)cc1 [Example 10, ({2-[(4-Chlorobenzyl)sulfanyl]ethyl}amino)acetic acid] | 507 nM |
| O=C(O)CNCCSc1ccc2ccncc2c1 [Example 11, {[2-(7-Isoquinolinylsulfanyl)ethyl]amino}acetic acid] | 71 nM |
| CCOC(=O)CNCCSc1ccc(Cl)cc1 [Example 12, Ethyl ({2-[(4-chlorophenyl)sulfanyl]ethyl}amino)acetate] | 5406 nM |
